Values joined by “and” are separate entries in the source; they are usually repeats but may differ in a detail not shown here. Identical values can stand only once.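 Compound exposure: 48 hours, 5 concentrations, 96-well plates. GI50: concentration for 50% inhibition of growth. TGI: concentration producing complete growth inhibition.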 Where a SMILES comes first, the peptide text is derived from it. The star is where a group is joined. Trt = c1ccc(C(c2ccccc2)(c2ccccc2)*)cc1; Cbz = O=C(OCc1ccccc1)*
Key:
Test in all cases: NCI-60 cell line screen, 48 h
[1] = test system: 786-0 renal
[2] = test system: A549 NSCLC
[3] = test system: ACHN renal
[4] = test system: COLO 205 colon
[5] = test system: KM12 colon
[6] = test system: MOLT-4 leukemia
[7] = test system: NCI-H460 lung
[8] = test system: NCI/ADR-RES ovarian
[9] = test system: OVCAR-5 ovarian
[10] = test system: SK-MEL-2 melanoma

Row | SMILES | TGI [1] | TGI [2] [µM] | TGI [3] | TGI [4] [µM] | TGI [5] | TGI [6] [µM] | TGI [7] | TGI [8] [µM] | TGI [9] [µM] | GI50 [1] [µM] | GI50 [2] | GI50 [3] | GI50 [4] [µM] | GI50 [5] | GI50 [6] [µM] | GI50 [7] [µM] | GI50 [8] [µM] | GI50 [9] | GI50 [10] | TGI [10]
1 | Cc1ccc(CNc2ccc(Br)cc2)cc1 | > 100 µM | > 100 | 41.7 µM | 49.7 | > 100 µM | > 100 | > 100 µM | > 100 | > 100 |  |  |  |  |  |  |  |  |  |  | 
2 | CCOC(=O)c1c(-c2ccccc2)[n+](=O)c2cc(Cl)c(Cl)cc2n1[O-] | 2.87 µM | 34.4 | 24.2 µM | 23.6 | 2.77 µM | > 100 | 46.7 µM | 44.7 | 47.7 | 1.54 | 15.5 µM | 11.9 µM | 3.85 | 1.31 µM | > 100 | 18.9 | 18 | 22 µM | 18.9 µM | > 100 µM
3 | COc1cc2c(c(OC)c1OC)-c1ccc(NN(C(=O)c3ccccc3)C(=O)c3ccccc3)c(=O)cc1[C@@H](NC(C)=O)CC2 (tested in a mixture with another compound) | 13.4 µM | > 100 | 24.8 µM | 12.2 | 25.7 µM | > 100 | 11.2 µM | > 100 | > 100 | 3.31 | 4.02 µM | 4.27 µM | 3.02 | 3.63 µM | 4.08 | 2.98 | 4.37 | 3.95 µM | 3.42 µM | 16.6 µM
4 | COc1cc(-c2cc(/C=C/C(=O)c3ccc(F)c(F)c3)[nH]n2)cc(OC)c1OC | 15.7 µM | 9.9 | > 100 µM | 3.19 | 11.4 µM | 9.09 | 8.24 µM | 50.5 | 33.8 | 3.35 | 2.43 µM | 3.26 µM | 1.69 | 3.06 µM | 2.72 | 2.96 | 3.46 | 4.49 µM | 2.3 µM | 5.89 µM
5 | CO[C@H]1C[C@@H]2CC[C@@H](C)[C@@](O)(O2)C(=O)C(=O)N2CCCC[C@H]2C(=O)O[C@H]([C@H](C)C[C@@H]2CC[C@@H](OC(=O)C(C)(CO)CO)[C@H](OC)C2)CC(=O)[C@H](C)/C=C(\C)[C@@H](O)[C@@H](OC)C(=O)[C@H](C)C[C@H](C)\C=C/C=C/C=C/1C | > 10 µM | > 10 | > 10 µM | > 10 | > 10 µM | > 10 | > 10 µM | > 10 | > 10 | 0.0149 | 0.067 µM | > 9.24 µM | > 5.94 | > 10 µM | 0.22 | 0.00131 | > 4.91 | > 6.89 µM | 1.68 µM | > 10 µM
6 | CCCn1c2c(c3ccccc3c1=O)C(=O)c1ccccc1-2 | > 100 µM | > 100 | > 100 µM | > 100 | > 100 µM | > 100 | > 100 µM | > 100 | > 100 |  |  |  |  |  |  |  |  |  |  | > 100 µM
7 | COC(=O)C(CO)NC(=O)C(CSC(c1ccccc1)(c1ccccc1)c1ccccc1)NC(=O)OCc1ccccc1 (stereo unspecified) (Cbz-Cys(Trt)-Ser-OMe; configuration not given here) | 46.9 µM | > 48.5 | > 53.3 µM | 32.4 | 31.3 µM | > 32.1 | 33.6 µM | 49.5 | 35.3 |  |  |  |  |  |  |  |  |  |  | 34.5 µM
8 | O=C1/C(=C/c2ccc(Cl)c(Cl)c2)CN(C(=O)C(Cl)Cl)C/C1=C\c1ccc(Cl)c(Cl)c1 | 0.306 µM | 0.908 | 0.474 µM | 0.638 | 0.587 µM | > 100 | 0.935 µM | > 100 | 0.545 | 0.151 | 0.22 µM | 0.179 µM | 0.178 | 0.16 µM | 0.0985 | 0.261 | 0.107 | 0.204 µM | 0.801 µM | 3.14 µM
9 | C/C(=N\O)c1ccc2ccc3ccccc3c2c1 | > 100 µM | 79.8 | > 100 µM | 76.6 | 45 µM | 52.9 | > 100 µM | 85.3 | > 100 |  |  |  |  |  |  |  |  |  |  | > 100 µM
10 | CCCCN(CCCC)C(=O)[C@H](CC)[C@@H]1CC[C@@H](C)[C@@H]([C@H](C)[C@@H](O)[C@@H](C)C(=O)[C@H](CC)C2O[C@]3(C=C[C@@H](O)[C@]4(CC[C@@](C)([C@H]5CC[C@](O)(CC)[C@H](C)O5)O4)O3)[C@H](C)C[C@@H]2C)O1 (stereo partly specified) | 7.44 µM | 34.4 | 10.5 µM | 5.99 | 3.91 µM | 8.31 | 4.47 µM | 9.02 | 4.78 | 2.49 | 3.12 µM | 3.04 µM | 2.45 | 1.83 µM | 2.68 | 1.99 | 2.5 | 1.9 µM | 2.67 µM | 7.53 µM
11 | CC1CC2C3CCC4=CC(=O)C=CC4(C)C3(F)C(O)CC2(C)C1(O)C(=O)COP(=O)(O)O (stereo unspecified) | > 500 µM | > 500 | > 500 µM | > 500 | > 500 µM | > 500 | > 500 µM | > 500 | > 500 | > 500 | > 500 µM | > 500 µM | > 500 | > 500 µM | > 500 | > 500 | > 500 | > 500 µM | > 500 µM | > 500 µM
12 | N#CCn1c(=O)c(Oc2ccc(F)cc2F)cc2cnc(NC3CCOCC3)nc21 | > 25 µM | > 25 | > 25 µM | > 25 | > 25 µM | > 25 | > 25 µM | > 25 | > 25 | > 25 | > 25 µM | 19.5 µM | > 25 | > 25 µM | > 25 | > 25 | > 25 | > 25 µM | > 25 µM | > 25 µM
13 | CC(=O)OCC1OC(n2c(=S)n(-c3ccc([N+](=O)[O-])cc3)c(=O)c3ccccc32)C(OC(C)=O)C(OC(C)=O)C1OC(C)=O (stereo unspecified) | 45.6 µM and 39 µM | > 100 | 97.9 µM and > 100 µM | > 100 | > 75.4 µM and 46.9 µM | > 95.1 | > 69.8 µM and 68.2 µM | 95.2 | > 100 | 17.9 | 23.1 µM and 32 µM | 20.3 µM and 29.7 µM | 31.2 | 25.5 µM and 17.4 µM |  |  |  | 32.2 µM and > 100 µM | 12 µM and 22.5 µM | 17.4 µM and 58.8 µM

From PubChem BioAssay (NCI)
